Experiments:
[1] = tested on: Monocotyledonous and dicotyledonous test plants; test: Herbicidal action before emergence of the plants (pre-emergence action), greenhouse pot test, 9-level rating after 4 weeks; type: in vivo; parameters: key: 9-level scale: 1 = complete damage, 9 = no effect; conditions: 250 g/ha, rated after 4 weeks, 9-level scale
Description: Herbicidal Action Before Emergence of the Plants (Pre-Emergence Action)
Monocotyledonous and dicotyledonous test plants are sown in standard soil in pots. Immediately after sowing, the test substances are sprayed on at an optimum dosage (500 l of water/ha) as an aqueous suspension (prepared from a wettable powder (example F3, b) according to WO 97/34485) or emulsion (prepared from an emulsion concentrate (example F1, c) according to WO 97/34485). The test plants are then grown under optimum conditions in a greenhouse.
After a test period of 4 weeks, the test is evaluated using a 9-level scale of ratings (1=complete damage, 9=no effect). Ratings of 1 to 4 (in particular 1 to 3) mean good to very good herbicidal action.

[2] = tested on: Monocotyledonous and dicotyledonous test plants; test: Post-emergence herbicidal action, greenhouse pot test, sprayed at the 2- to 3-leaf stage, 9-level rating after 2 to 3 weeks; type: in vivo; parameters: key: 9-level scale: 1 = complete damage, 9 = no effect; conditions: 250 g/ha, rated after 2 to 3 weeks, 9-level scale
Description: Post-Emergence Herbicidal Action
Monocotyledonous and dicotyledonous test plants are grown in standard soil in pots. At the 2- to 3-leaf stage of the test plants, the test substances are sprayed at optimum dosage (500 l of water/ha) as an aqueous suspension (prepared from a wettable powder (example F3, b) according to WO 97/34485) or emulsion (prepared from an emulsion concentrate (example F1, c) according to WO 97/34485). The test plants are then grown further under optimum conditions in a greenhouse.
After a test period of 2 to 3 weeks, the test is evaluated using a 9-level scale of rating (1=complete damage, 9=no effect). Ratings of 1 to 4 (in particular 1 to 3) mean good to very good herbicidal action.

Row | SMILES | Pre-emergence action rating, Abutilon [1] | Pre-emergence action rating, Amaranthus [1] | Pre-emergence action rating, Digitaria [1] | Pre-emergence action rating, Echino. [1] | Pre-emergence action rating, Panicum [1] | Post-emergence action rating, Abutilon [2] | Post-emergence action rating, Amaranth [2] | Post-emergence action rating, Chenop. [2] | Post-emergence action rating, Digitaria [2] | Post-emergence action rating, Echino. [2] | Post-emergence action rating, Ipopur. [2] | Post-emergence action rating, Panicum [2] | Post-emergence action rating, Xanth. [2] | Pre-emergence action rating, Chenop. [1]
1 | CCN(CC)CC.O=C(C1=C(O)C2CCC(C2)C1=O)c1ccc(C(F)(F)F)nc1COC1CCCCO1 (stereo not drawn) [A28-B52 (Et3NH+)] | 3 | 1 | 2 | 2 | 1 | 2 | 2 | 1 | 2 | 2 | 2 | 1 | 3 | 
2 | COCCCOCc1nc(C(F)(F)F)ccc1C(=O)C1=C(O)C2CCC(C2)C1=O (stereo not drawn) [A846-B52] | 2 | 1 | 1 | 1 | 1 | 2 | 2 | 2 | 2 | 2 | 1 | 1 | 2 | 1
3 | CCOCCOCc1nc(C(F)(F)F)ccc1C(=O)C1=C(O)C2CCC(C2)C1=O (stereo not drawn) [A11-B52] | 1 | 2 | 1 | 1 | 1 | 2 | 1 | 1 | 1 | 2 | 2 | 1 | 2 | 1
4 | CC(=O)OCc1nc(C(F)(F)F)ccc1C(=O)C1=C([O-])C2CCC(C2)C1=O.[K+] (stereo not drawn) [A833-B52 (K+)] | 1 | 2 | 2 | 2 | 1 | 3 | 3 | 3 | 3 | 4 | 3 | 3 | 2 | 1
5 | COCOCc1nc(C(F)(F)F)ccc1C(=O)C1=C(O)C2CCC(C2)C1=O (stereo not drawn) [A8-B52] | 1 | 1 | 1 | 1 | 1 | 1 | 1 | 1 | 1 | 1 | 1 | 1 | 2 | 
6 | CS(=O)(=O)CCOCc1nc(C(F)(F)F)ccc1C(=O)C1=C(O)C2CCC(C2)C1=O (stereo not drawn) [A819-B52] | 1 | 2 | 9 | 7 | 7 | 2 | 2 | 1 | 3 | 2 | 2 | 2 | 2 | 1
7 | COCCOCCOCc1nc(C(F)(F)F)ccc1C(=O)C1=C(O)C2CCC(C2)C1=O (stereo not drawn) [A835-B52] | 2 | 1 | 2 | 1 | 1 | 2 | 2 | 1 | 1 | 2 | 2 | 1 | 3 | 2
8 | CC#CCOCc1nc(C(F)(F)F)ccc1C(=O)c1cnn(C)c1O [A20-C5] | 1 | 1 | 2 | 2 | 1 | 3 | 2 | 1 | 3 | 4 | 3 | 2 | 3 | 1
9 | COCCOCc1nc(C(F)(F)F)ccc1C(=O)c1c(C)nn(C)c1O [A10-C2 (H6), (5-Hydroxy-1,3-dimethyl-1H-pyrazol-4-yl)-[2-(2-methoxyethoxymethyl)-6-trifluoromethylpyridin-3-yl]methanone] | 1 | 2 | 3 | 3 | 3 | 2 | 1 | 1 | 4 | 3 | 3 | 2 | 1 | 1
10 | CCOCc1nc(C(F)(F)F)ccc1C(=O)c1cnn(C)c1O [A2-C5] | 1 | 1 | 2 | 2 | 1 | 2 | 1 | 1 | 2 | 2 | 2 | 1 | 2 | 1

From patent US7378375B1, “Substituted pyridine herbicides” (Syngenta Crop Protection, Inc., priority 2000, dated 2008)
